From patent US9416173B2, “Peptide and conjugate vaccines for fungal infections” (priority 2011, dated 2016)

What was measured:
Fba peptide [1] = experiment: ELISA antibody responses against the Fba peptide in C57BL/6 mice; assay type: in vivo; conditions: DC-based immunization; 14 days after second booster
Experimental: Sera were ELISA analyzed for antibody titers. For DC-based immunization, control groups consisted of mice given DCs alone at the time of priming and first booster followed by CFA alone at the time of the second booster, or DPBS alone for all three injections. For Fba peptides administered with alum or MPL, control groups were mice given adjuvant alone or DPBS buffer. […] Synthetic Fba-MAP (GenScript) was dissolved at 5 μg/ml in PBS (pH 7.4) and used to coat 96-well ELISA plates for testing duplicate serial 2-fold dilutions of samples of each immune serum and control sera. Color development for each well was achieved by use of secondary antibody (goat anti-mouse polyvalent Ig-HRP) and substrate (O-phenylenediamine and H2O2) and OD determined at 492 nm.
By the same DC-based immunization approach used for the BALB/c mice as described above, C57BL/6 mice was tested with the Fba peptide was given alone or as a glycoconjugate compared to the control groups of mice injected with DPBS buffer, or DCs+CFA.
Fourteen days after the second booster, immune sera were tested by ELISA for antibody responses against the Fba peptide.

C. albicans strain 3153A = experiment: Fungal challenge and assessment of protection (disseminated candidiasis), peptide vaccines; assay type: in vivo, BALB/c mice; conditions: peptide-pulsed DC vaccine
Experimental: C. albicans 3153A and SC5314, C. krusei (ATCC 6258), C. glabrata (ATCC 2001) and Saccharomyces cerevisiae (ATCC 9463) were obtained from the American Type Culture Collection (ATCC; Manassas, Va.) and were grown as stationary-phase yeast cells in glucose-yeast extract-peptone broth at 37° C., washed and suspended to the appropriate cell concentration (5×10^6/ml) in Dulbecco's PBS (DPBS; Sigma-Aldrich, St. Louis, Mo.), and used to infect mice intravenously (i.v.) as previously described (25, 29). C. albicans strain 3153A was also used for serum antibody absorption, immunofluorescence staining and flow cytometric analysis. Unless otherwise indicated, C. albicans strain 3153A was used to challenge the mice in the examples below.
(§1) Two weeks after the second boost, immune and control mice were infected intravenously (i.v.) with a lethal dose of live C. albicans yeast cells (5×10^5 in 0.1 ml of DPBS) prepared as described above and as before (53). Passively immunized mice (below) also received the same challenge dose. Protection was evaluated by monitoring animal survival for 80-100 days. The mice were monitored 2-3 times daily for the development of a moribund state, defined as being listless, disinterested in food or water, and nonreactive to finger probing. At the time that a mouse was deemed moribund, it was sacrificed and their kidneys (for some experiments, brains) were homogenized in DPBS and plated onto a nutrient agar to determine colony forming units (CFUs). After 80-100 days, the experiments were terminated and all the survivors at that time were sacrificed and their kidneys were assessed for CFU as before. The lowest limit of detection for the CFU assay was 50 CFU per kidney pair.
Two weeks after the second boost, immune and control mice were infected i.v. with a lethal dose of live C. albicans yeast cells (5×10^5 in 0.1 ml of DPBS). Passively immunized mice also received the same challenge dose. Protection was evaluated by monitoring animal survival for up to 120 days and by quantifying the number of CFU (mean±SE) per kidney pairs. Median survival times (MST) were statistically evaluated by Kaplan-Meier (GraphPad Prism, version 4). In all analyses, there were five mice per group (n=5), and a two-tailed t test was used.

[2] = system: C. albicans strain SC5314; experiment: Fungal challenge and assessment of protection, strain SC5314; assay type: in vivo, BALB/c mice; conditions: Fba peptide by dendritic cell approach
Experimental: as §1
To test if vaccination with the Fba peptide pulsed DCs protects mice challenged with a different C. albicans strain, we challenged immunized mice with C. albicans strain SC5314 (ATCC), which is the most commonly used clinical isolate of C. albicans for research purposes. As a positive control, a second group of mice immunized at the same time were challenged with C. albicans strain 3153A.

MAb E2-9 = experiment: Inhibition ELISA (MAb E2-9 on Fba-MAP coated wells, Fba peptide as inhibitor); assay type: binding; conditions: soluble Fba peptide inhibiting MAb E2-9 reactivity with solid phase Fba-MAP
Experimental: The specificity of MAb E2-9 for Fba peptide was determined by an inhibition ELISA as described previously (52, 53). Briefly, Fba-MAP was dissolved in DPBS (5 μg/ml), and the solution was used to coat 96-well ELISA plates (100 μl, overnight at 4° C.). The wells were washed five times with PBST (PBS containing Tween 20, 0.05% [vol/vol] and blocked with 1% bovine serum albumin-PBST. MAb E2-9 produced as described above, was serially diluted up to 10,000 for ELISA measurements. Unless otherwise stated, the serum was diluted 1:100 dilution in DPBS to determine the content of antibody by ELISA. MAb E2-9 was mixed with Fba peptide (inhibitor) (dissolved in PBST at a concentration between 0.1 μM and 1 mM), and the resulting solution of each concentration was added to the Fba-MAP coated microtiter wells (solid phase) in triplicate and incubated at 21 to 23° C. for 2 h. Unless otherwise stated, the concentration of test antigens used to coat the wells was about 5-10 μg/ml. […] Color was allowed to develop for 10 min, stopped by addition of […] of 2 M H2SO4, and read at 492 nm (microtiter plate reader, model 450; Bio-Rad, Richmond, Calif.). The percent inhibition was calculated relative to wells containing antibody without inhibitor.

Fba peptide [3] = system: Fba peptide; design: species or system BALB/c mice; conditions: mouse, in vivo
Fba peptide [4] = experiment: Rabbit antisera against the Fba peptide (titers); assay type: in vivo; conditions: Fba conjugated to KLH; each of two rabbits; commercial source (Genscript); data not shown
From the text: To obtain enough antisera for passive transfer experiments, and to determine whether the Fba peptide is immunologically restricted in other animal species, we obtained rabbit antisera against the peptide from a commercial source (Genscript). Fba was conjugated to keyhole limpet hemocyanin (KLH) prior to the rabbit immunizations.

C. albicans = experiment: Immunofluorescence and flow cytometric analysis of binding to fungal cell surface; assay type: cell-based; conditions: live fungal cells reacted with immune serum of peptide-immunized mice
Experimental: Distribution of the Fba peptide epitope on yeast cells was determined by indirect immunofluorescence. […] The yeast cells were suspended in the antibody preparation and incubated while shaking by rotation at room temperature (RT, 22-24° C.) for 1-2 h. After incubation, the yeast cells were washed with DPBS three times, suspended in 200 μl of fluorescein-labeled goat anti-mouse IgM (u-chain specific; Sigma) (stock solution, 1 mg/ml; working solution, 20 μg/ml of DPBS) and incubated at RT as described above for 0.5 h. The yeast cells were washed with DPBS three times and suspended in 200 μl of DPBS. The cells were observed by confocal microscopy (LSM 510, Zeiss). The distribution of the Fba peptide epitope on the yeast cell surface was compared to that obtained with yeast cells fluorescently stained for detection of the MAb B6.1 epitope. […] For flow cytometric analysis, following the last incubation, cells were washed as described above and suspended in the 500 μl DPBS buffer. Flow cytometry was performed using a BD Biosciences FACSVantage SE equipped with an argon laser excitation at 488 nm. 10,000 cells in each sample were analyzed (CellQuest Pro software).
Distribution of the β-(Man)3 and Fba peptide epitopes on yeast cells was determined by use of immune serum for flow cytometric analysis and indirect immunofluorescence. One hundred microliters of immune serum (1:100 dilution in 1% BSA/DPBS) was added to a pellet of C. albicans yeast cells (5×10^6) that was prewashed with DPBS buffer three times. The yeast cells were suspended in the immune serum [from β-(Man)3-Fba-TT immunized mice] preparation and incubated while shaking by rotation at room temperature (RT, 22-24° C.) for 1-2 h. After incubation, the yeast cells were washed with DPBS three times, suspended in 200 μl of fluorescein-labeled goat anti-mouse IgM (μ-chain specific; Sigma) (stock solution, 1 mg/ml; working solution, 20 μg/ml of DPBS) and incubated at RT described above for 0.5 h. The yeast cells were washed with DPBS three times and suspended in 500 μl of DPBS. Flow cytometry was performed using a BD Biosciences FACSVantage SE equipped with an argon laser excitation at 488 nm. 10,000 cells in each sample were analyzed (CellQuest Pro software).
For immunofluorescence assays, the fungal cells were immunostained and washed as described above and suspended in the 200 μl DPBS buffer. The cells were observed by confocal microscopy (LSM 510, Zeiss). The distribution of the β-(Man)3 and Fba peptide epitopes on the yeast cell surface was compared to that obtained with yeast cells fluorescently stained for detection of the MAb B6.1 epitope.

Sequence: YGKDVKDLFDYAQE [Fba]
- antibody responses against the Fba peptide (ELISA, Fba-MAP coated plates) (Fba peptide [1]): strong antibody responses
- protection against disseminated candidiasis (survival) (C. albicans strain 3153A; vs DPBS or DCs+CFA controls): a high degree of protection
- viable fungal units (CFUs) in kidneys (C. albicans strain 3153A; vs controls, detection limit 50 CFU per kidney pair): low or even non-detectable
- survival time ([2]; vs DCs+CFA or DPBS (P<0.01)): significant prolonged survival time
- CFUs in kidneys ([2]; vs controls (P<0.01)): greatly reduced or non-detectable CFUs
- concentration of inhibitor (Fba peptide) required to achieve 50% inhibitory concentration (MAb E2-9): about 10 μg/ml
- anti-Fba IgM and IgG antibodies in sera (Fba peptide [3]): very low levels of anti-Fba IgM and IgG antibodies
- Titers of anti-Fba peptide immune sera (Fba peptide [4]): 512,000
- binding of antibody in the immune serum to the peptides expressed on C. albicans cell surface (flow cytometric analysis) (C. albicans): expressed on the fungal surface and are accessible to antibodies in immune sera
